Patent publication US7138361B2, “Herbicidal heterocycles” (E. I. du Pont de Nemours and Company, priority 2000, dated 2006)

Key:
Test in all cases: Test C preemergence
Type in all cases: in vivo
Nightshade [1] = tested on: Nightshade
Sunflower = details: Rate 125 g/ha; scale 0 to 100, 0 no effect, 100 complete control
[2] = tested on: Surinam grass (Brachiaria decumbens); details: for Plant response rating (0 to 100), Surinam grass: Rate 500 g/ha, visual evaluation after 12 to 14 days
Method in brief: (§1)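 Response scores (0 no effect to 100 complete control) came from visual comparison with untreated controls 12 to 14 days after treatment. Preemergence application was made to seeded soil; postemergence, to plants at the 1- to 4-leaf stage.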

[3] = tested on: bermudagrass (Cynodon dactylon); details: for Plant response rating (0 to 100 where 0 is no effect and 100 is complete control), Bermudagrass: Rate 500 g/ha, visual evaluation after 12 to 14 days
Method in brief: as §1

[4] = tested on: cocklebur (Xanthium strumarium); details: for Plant response rating (0 to 100), Cocklebur: Rate 500 g/ha, visual evaluation after 12 to 14 days
Method in brief: as §1

[5] = tested on: common ragweed (Ambrosia elatior); details: for Plant response rating (0 to 100), Ragweed, Common: Rate 500 g/ha, visual evaluation after 12 to 14 days
Method in brief: as §1

corn (Zea mays) = details: for Plant response rating (0 to 100), Corn: Rate 500 g/ha, visual evaluation after 12 to 14 days
Method in brief: as §1

[6] = tested on: crabgrass (Digitaria sanguinalis); details: for Plant response rating (0 to 100), Crabgrass: Rate 500 g/ha, visual evaluation after 12 to 14 days
Method in brief: as §1

[7] = tested on: giant foxtail (Setaria faberii); details: for Plant response rating (0 to 100), Foxtail, Giant: Rate 500 g/ha, visual evaluation after 12 to 14 days
Method in brief: as §1

[8] = tested on: goosegrass (Eleusine indica); details: for Plant response rating (0 to 100), Goosegrass: Rate 500 g/ha, visual evaluation after 12 to 14 days
Method in brief: as §1

[9] = tested on: johnsongrass (Sorghum halepense); details: for Plant response rating (0 to 100), Johnsongrass: Rate 500 g/ha, visual evaluation after 12 to 14 days
Method in brief: as §1

kochia (Kochia scoparia) = details: for Plant response rating (0 to 100), Kochia: Rate 500 g/ha, visual evaluation after 12 to 14 days
Method in brief: as §1

[10] = tested on: lambsquarters (Chenopodium album); details: for Plant response rating (0 to 100), Lambsquarters: Rate 500 g/ha, visual evaluation after 12 to 14 days
Method in brief: as §1

[11] = tested on: morningglory (Ipomoea hederacea); details: for Plant response rating (0 to 100), Morningglory: Rate 500 g/ha, visual evaluation after 12 to 14 days
Method in brief: as §1

[12] = tested on: pigweed (Amaranthus retroflexus); details: for Plant response rating (0 to 100), Pigweed: Rate 500 g/ha, visual evaluation after 12 to 14 days
Method in brief: as §1

soybean (Glycine max) = details: for Plant response rating (0 to 100), Soybean: Rate 500 g/ha, visual evaluation after 12 to 14 days
Method in brief: as §1

[13] = tested on: velvetleaf (Abutilon theophrasti); details: for Plant response rating (0 to 100), Velvetleaf: Rate 500 g/ha, visual evaluation after 12 to 14 days
Method in brief: as §1

[14] = tested on: woolly cupgrass (Eriochloa villosa); details: for Plant response rating (0 to 100), Cupgrass, Woolly: Rate 500 g/ha, visual evaluation after 12 to 14 days
Method in brief: as §1

[15] = tested on: yellow nutsedge (Cyperus esculentus); details: for Plant response rating (0 to 100), Nutsedge: Rate 500 g/ha, visual evaluation after 12 to 14 days
Method in brief: as §1

Nightshade [16] = details: Rate 500 g/ha, visual evaluation after 12 to 14 days
[17] = Rate 125 g/ha, scale 0 to 100, 0 no effect, 100 complete control
[18] = Rate 250 g/ha, scale 0 to 100, 0 no effect, 100 complete control
[19] = preemergence, Rate 62 g/ha, scale 0 to 100
[20] = preemergence, Rate 250 g/ha, scale 0 to 100, 0 no effect, 100 complete control

CCCC(C)c1ccn(C2OCN(c3cccc(C(F)(F)F)c3)C2=O)n1 (centres unmarked) [Compound 89]
95: Plant response rating, Goosegrass [8, 19]
20: Plant response rating, Crabgrass [6, 19] | Plant response rating, Kochia (kochia (Kochia scoparia); [19])
0: Plant response rating, Nightshade (Nightshade [1]; Rate 62 g/ha, scale 0 to 100) | Plant response rating, Nightshade (Nightshade [1]; [17]) | Plant response rating, Nightshade (Nightshade [1]; [18]) | Plant response rating, Sunflower (Sunflower) | Plant response rating, Surinam grass [2, 19] | Plant response rating, Cocklebur [4, 17] | Plant response rating, Cocklebur [4, 19] | Plant response rating, Ragweed, Common [5, 17] | Plant response rating, Ragweed, Common [5, 19] | Plant response rating (0 to 100), Ragweed, Common ([5]; preemergence) | Plant response rating, Ragweed, Common [5, 20] | Plant response rating, Foxtail, Giant [7, 17] | Plant response rating, Foxtail, Giant [7, 19] | Plant response rating, Foxtail, Giant [7, 20] | Plant response rating, Morningglory [11, 17] | Plant response rating, Morningglory [11, 19] | Plant response rating (0 to 100), Morningglory ([11]; preemergence) | Plant response rating, Morningglory [11, 20] | Plant response rating, Pigweed [12, 17] | Plant response rating, Pigweed [12, 19] | Plant response rating, Soybean (soybean (Glycine max); [17]) | Plant response rating, Soybean (soybean (Glycine max); [19]) | Plant response rating, Soybean (soybean (Glycine max); [20]) | Plant response rating, Velvetleaf [13, 17] | Plant response rating, Velvetleaf [13, 19] | Plant response rating, Velvetleaf [13, 20] | Plant response rating, Cupgrass, Woolly [14, 17] | Plant response rating, Cupgrass, Woolly [14, 19] | Plant response rating, Nutsedge [15, 17] | Plant response rating, Nutsedge [15, 19] | Plant response rating (0 to 100), Nutsedge ([15]; preemergence) | Plant response rating, Nutsedge [15, 20]
10: Plant response rating, Surinam grass [2, 17] | Plant response rating, Bermudagrass [3, 19] | Plant response rating (0 to 100), Cocklebur ([4]; preemergence) | Plant response rating, Cocklebur [4, 20] | Plant response rating, Corn (corn (Zea mays); [19]) | Plant response rating (0 to 100), Velvetleaf ([13]; preemergence)
90: Plant response rating, Bermudagrass [3, 17] | Plant response rating, Bermudagrass [3, 20] | Plant response rating, Kochia (kochia (Kochia scoparia); [20])
70: Plant response rating, Johnsongrass [9, 17] | Plant response rating, Johnsongrass [9, 20] | Plant response rating, Kochia (kochia (Kochia scoparia); [17]) | Plant response rating (0 to 100), Cupgrass, Woolly ([14]; preemergence)
50: Plant response rating, Johnsongrass [9, 19] | Plant response rating, Pigweed [12, 20]
40: Plant response rating, Cupgrass, Woolly [14, 20]
25: Plant response rating, Corn (corn (Zea mays); [17])
30: Plant response rating, Surinam grass [2, 20] | Plant response rating (0 to 100), Corn (corn (Zea mays); preemergence) | Plant response rating, Corn (corn (Zea mays); [20]) | Plant response rating (0 to 100), Soybean (soybean (Glycine max); preemergence) | Plant response rating (0 to 100), Nightshade (Nightshade [16])
80: Plant response rating, Lambsquarters [10, 19]
65: Plant response rating (0 to 100), Surinam grass ([2]; preemergence)
100: Plant response rating (0 to 100 where 0 is no effect and 100 is complete control), Bermudagrass ([3]; preemergence) | Plant response rating, Crabgrass [6, 17] | Plant response rating (0 to 100), Crabgrass ([6]; preemergence) | Plant response rating, Crabgrass [6, 20] | Plant response rating (0 to 100), Foxtail, Giant ([7]; preemergence) | Plant response rating, Goosegrass [8, 17] | Plant response rating (0 to 100), Goosegrass ([8]; preemergence) | Plant response rating, Goosegrass [8, 20] | Plant response rating (0 to 100), Johnsongrass ([9]; preemergence) | Plant response rating (0 to 100), Kochia (kochia (Kochia scoparia); preemergence) | Plant response rating, Lambsquarters [10, 17] | Plant response rating (0 to 100), Lambsquarters ([10]; preemergence) | Plant response rating, Lambsquarters [10, 20] | Plant response rating (0 to 100), Pigweed ([12]; preemergence)

CCCC(C)c1ccn(C2OCN(c3cccc(OC(F)(F)F)c3)C2=O)n1 (centres unmarked) [Compound 91]
90: Plant response rating, Goosegrass [8, 19] | Plant response rating, Johnsongrass [9, 20] | Plant response rating, Kochia (kochia (Kochia scoparia); [17]) | Plant response rating, Kochia (kochia (Kochia scoparia); [20]) | Plant response rating, Lambsquarters [10, 19] | Plant response rating, Cupgrass, Woolly [14, 20]
80: Plant response rating (0 to 100), Surinam grass ([2]; preemergence) | Plant response rating, Johnsongrass [9, 17]
10: Plant response rating, Bermudagrass [3, 19] | Plant response rating (0 to 100), Cocklebur ([4]; preemergence) | Plant response rating (0 to 100), Corn (corn (Zea mays); preemergence) | Plant response rating, Corn (corn (Zea mays); [20]) | Plant response rating, Foxtail, Giant [7, 19] | Plant response rating, Cupgrass, Woolly [14, 19] | Plant response rating (0 to 100), Nightshade (Nightshade [16])
20: Plant response rating, Johnsongrass [9, 19] | Plant response rating, Kochia (kochia (Kochia scoparia); [19])
100: Plant response rating, Bermudagrass [3, 17] | Plant response rating (0 to 100 where 0 is no effect and 100 is complete control), Bermudagrass ([3]; preemergence) | Plant response rating, Bermudagrass [3, 20] | Plant response rating, Crabgrass [6, 17] | Plant response rating, Crabgrass [6, 19] | Plant response rating (0 to 100), Crabgrass ([6]; preemergence) | Plant response rating, Crabgrass [6, 20] | Plant response rating (0 to 100), Foxtail, Giant ([7]; preemergence) | Plant response rating, Goosegrass [8, 17] | Plant response rating (0 to 100), Goosegrass ([8]; preemergence) | Plant response rating, Goosegrass [8, 20] | Plant response rating (0 to 100), Johnsongrass ([9]; preemergence) | Plant response rating (0 to 100), Kochia (kochia (Kochia scoparia); preemergence) | Plant response rating, Lambsquarters [10, 17] | Plant response rating (0 to 100), Lambsquarters ([10]; preemergence) | Plant response rating, Lambsquarters [10, 20] | Plant response rating (0 to 100), Pigweed ([12]; preemergence) | Plant response rating (0 to 100), Cupgrass, Woolly ([14]; preemergence)
30: Plant response rating, Surinam grass [2, 17] | Plant response rating, Surinam grass [2, 20] | Plant response rating, Foxtail, Giant [7, 17] | Plant response rating, Foxtail, Giant [7, 20]
70: Plant response rating, Cupgrass, Woolly [14, 17]
0: Plant response rating, Nightshade (Nightshade [1]; Rate 62 g/ha, scale 0 to 100) | Plant response rating, Nightshade (Nightshade [1]; [17]) | Plant response rating, Nightshade (Nightshade [1]; [18]) | Plant response rating, Sunflower (Sunflower) | Plant response rating, Surinam grass [2, 19] | Plant response rating, Cocklebur [4, 17] | Plant response rating, Cocklebur [4, 19] | Plant response rating, Cocklebur [4, 20] | Plant response rating, Ragweed, Common [5, 17] | Plant response rating, Ragweed, Common [5, 19] | Plant response rating (0 to 100), Ragweed, Common ([5]; preemergence) | Plant response rating, Ragweed, Common [5, 20] | Plant response rating, Corn (corn (Zea mays); [17]) | Plant response rating, Corn (corn (Zea mays); [19]) | Plant response rating, Morningglory [11, 17] | Plant response rating, Morningglory [11, 19] | Plant response rating (0 to 100), Morningglory ([11]; preemergence) | Plant response rating, Morningglory [11, 20] | Plant response rating, Pigweed [12, 17] | Plant response rating, Pigweed [12, 19] | Plant response rating, Pigweed [12, 20] | Plant response rating, Soybean (soybean (Glycine max); [17]) | Plant response rating, Soybean (soybean (Glycine max); [19]) | Plant response rating (0 to 100), Soybean (soybean (Glycine max); preemergence) | Plant response rating, Soybean (soybean (Glycine max); [20]) | Plant response rating, Velvetleaf [13, 17] | Plant response rating, Velvetleaf [13, 19] | Plant response rating (0 to 100), Velvetleaf ([13]; preemergence) | Plant response rating, Velvetleaf [13, 20] | Plant response rating, Nutsedge [15, 17] | Plant response rating, Nutsedge [15, 19] | Plant response rating (0 to 100), Nutsedge ([15]; preemergence) | Plant response rating, Nutsedge [15, 20]
